Test results published in patent publication US8772463B2, “Fluorescent dye-labeled glucose bioprobe, synthesis method and usage thereof” (SNU R&DB Foundation, priority 2007, dated 2014).
“Also recorded” adds a separate entry of the source.

How the values were obtained:
3T3/L1 adipocytes = assay: Cellular glucose uptake under insulin, AICAR, dexamethasone monitored by GB2-Cy3; type: cell-based, mouse; details: insulin 170 nM, AICAR 1 mM (1 hr) or dexamethasone 1 μM (24 hrs); GB2-Cy3 10 μM
Protocol: (§1) For the differentiation of preadipocyte to mature adipocytes, 3T3/L1 fibroblast cells were cultured using the above mentioned culture protocol. […] When the cells start to generate lipid drops as an indication of the differentiation toward mature adipocytes, insulin was removed from the culture media. Mature adipocytes can be achieved by 8- to 12-day differentiation, and used for flow cytometric analysis and fluorescent bioimaging microscopy.
Also, C2C12 cells and 3T3/L1 cells, each having a population of 6×10^4 cells, were cultured and differentiated on respective microscope cover glasses [Marlenfeld GmbH&Co., KG (Germany)] in 35 mm cell culture dishes. After removal of the differentiation media, FBS-free DMEM media containing 5.5 mM glucose were added to maintained a serum-free condition for 4 hrs. […] In this regard, an FBS-free DMEM medium containing 5.5 mM glucose or a DMEM medium free of both FBS and glucose was used. Cells were incubated at 37° C. for 30 min after which the glass chamber slides were withdrawn from the culture dishes and loaded on a chamber. […] Fluorescence images were taken every seven seconds, digitized and saved on a computer until analysis.
3T3/L1 preadipocyte cells and C2C12 […] cells were cultured in 24-well plates. […] 2×10^5 (3T3/L1) or 1×10^5 (C2C12) cells were analyzed using FACSCalibur™ and a confocal laser scanning microscope.

C2C12 muscle cells [1] = assay: as above; type: cell-based, mouse; details: insulin 170 nM, AICAR 1 mM (1 hr) or dexamethasone 1 μM (24 hrs); GB2-Cy3 5 μM
Protocol: (§3) For the differentiation to mature muscle cells, C2C12 mouse myoblast cells were maintained in DMEM supplemented with 10% FBS and 1% antibiotic-antimycotic solution. When the cells reached to 100% confluency, the medium was changed to DMEM containing 2% horse serum in every two days. Experiments for flow cytometric analysis and flow cytometric analysis were carried out with cells after 3 to 5-days differentiation.
3T3/L1 preadipocyte cells and C2C12 fibroblast cells were cultured in 24-well plates. […] 2×10^5 (3T3/L1) or 1×10^5 (C2C12) cells were analyzed using FACSCalibur™ and a confocal laser scanning microscope.

A549 cells [2] = assay: Screening of anticancer agents by Cy3-Glc-α uptake; type: cell-based, human
Protocol: (§2) 1×10^4 cells were cultured on a Lab-Tek glass chamber slide (Nalge Nunc International, Naperville, Ind., USA) in 35 mm cell culture dish. After 24 h, the cells were treated for each experimental purpose. Then, the medium was replaced with RPMI 1640 medium containing 12.5 μM of Cy3-Glc-α. The cells were exposed to Cy3-Glc-α for 40 min, then washed with PBS 3 times. Finally, the glass chamber slide was taken from culture dish and loaded on the fluorescence microscope (Axiovert 200, Carl Zeiss, Germany). Fluorescence images of 35-50 cells were taken by CCD camera (Axiocam MRm, Germany) and fluorescence intensity of each cell was measured by Axiovision (program for data analysis). An area as ROIs (regions of interest) which contains a cell in phase-contrast image was drawn using Axiovision. Axiovision analyzed CCD camera images and provided the digitized mean of fluorescence intensity in the ROIs that the present inventors had established. The present inventors subtracted the background intensity from the fluorescence intensity to get the fluorescence intensity value that a cell contained. With the method described above, the present inventors digitized fluorescence intensity and performed various experiments.
The application was performed under the postulation that the depression of perturbed cellular metabolism in cancer cells was caused by anticancer agents, which was closely related to the reduction of glucose uptake.
The present inventors intended to monitor this phenomenon by the fluorescent bioprobe according to the present invention, that is, Cy3-Glc-α. As a proof-of-principle experiment, after A549 cancer cells were treated with taxol (9.8 μM), an anticancer agent, and the uptake of Cy3-Glc-αwas measured at 3, 6, 12, and 24 h after the treatment.
(3) In addition, after the taxol concentration was changed in the range of 490 nM to 49 nM, the uptake of Cy3-Glc-α by A549 cells was measured after 8 hr and 12 hr, and after another anticancer agent, i.e., combretastatin, (2 μM) was used to treat A549 cells, the uptake of Cy3-Glc-α by A549 cells was measured after 8 hr and 12 hr.

NIH/3T3 cells [3] = assay: Fluorescence imaging analysis of competitive GB2-Cy3 uptake; type: cell-based, murine; details: GB2-Cy3 10 μM; 0, 11 or 55 mM D-glucose
Protocol: Also, NIH/3T3, A549, C2C12 and 3T3/L1 cells, each having a population of 4×10^4 cells, were cultured on 35 mm cell culture dishes (BD Falcon™ Cell Culture Dish; BD Bioscience, CA, USA). Two days later, the cell culture medium was replaced with a glucose-depleted medium (DMEM, glucose free, GIBCO) supplemented with 0 mM, 11 mM or 55 mM D-glucose and 10 μM GB2-Cy3. After incubation at 37° C. for 30 min, the cells on the cover slips in the 35-mm cell culture dishes were washed twice with cold PBS and the cover slips were mounted on the caster of a fluorescence microscope (Olympus IX71). During observation under the fluorescence microscope, the cells were maintained at 37° C. in the chamber. Fluorescence images of 35-50 cells were taken by CCD camera (Axiocam MRm, Germany) and each cell was measured for fluorescence intensity using the image data analysis program Image-Pro® Plus (MediaCybernetics, USA). […] Image-Pro® Plus analyzed CCD camera images to produce the digitized mean of fluorescence intensity within the ROIs that the present inventors had established. The background intensity was subtracted from the detected fluorescence intensity to give the fluorescence intensity value that a cell contained. In this manner, the fluorescence intensity was digitized for performing various experiments. […]

3T3/L1 pre-adipocytes = assay: GB2-Cy3 uptake during adipocyte differentiation, FACS-based flow cytometry; type: cell-based, mouse; details: day 0 to day 8 of differentiation
Protocol: as §1
The changes in cellular glucose uptake from 3T3/L1 pre-adipocytes (day 0 of differentiation) toward more than 50% differentiation of mature adipocytes (day 8 of differentiation) were measured by FACS-based flow cytometric analysis using GB2-Cy3. The differentiation procedure was followed as described above. 1×10^4 cells were analyzed at FL2 channel of the flow cytometry. […] As mentioned above, the glucose analogue GB2-Cy3 of the present invention is useful for monitoring the differentiation of 3T3/L1 cells into mature adipocytes.

NIH/3T3 cells [4] = assay: FACS-based flow cytometric analysis of probe uptake with/without 11 mM D-glucose; type: cell-based, murine; details: for reduction in cellular uptake due to 11 mM D-glucose: glucose-depleted condition normalized to 100
Protocol: FACS (Fluorescence Activated Cell Sorting)-based flow cytometric analysis was used to compare cellular uptake efficiency in NIH/3T3 cells among the glucose probe [2-(N-Cy3-piperazinoethyl)]-α-D-glucose (GB2-Cy3), synthesized in Example 2, the conventional fluorescent glucose probe 2-NBDG and the glucose probe Cy3-Glc-α, synthesized in Example 1.
NIH/3T3 cells were cultured on 10 cm cell culture dishes and transferred in a volume of 3×10^5 cells into each FACS tube (5 mL, BD). They were washed once with cold PBS before incubation at 37° C. for 30 min in 11 mM D-glucose-containing PBS or glucose-free PBS in the presence of the bioprobe [GB2-Cy3 (5 μM), 2-NBDG (5 μM or 50 μM) or Cy3-Glc-α (5 μM)]. Cells that were incubated without the bioprobes were used as a negative control. After being washed with cold PBS, 1×10^4 NIH/3T3 cells were analyzed on FACSCalibur™ (FACS-based flow cytometer). GBs-Cy3 was detected by FL2 channels. Raw data of 1×10^4 cells are shown in histograms, with the mean values thereof given in the graph of FIG. 21.

A549 cells [5] = assay: Fluorescence imaging analysis of competitive probe uptake; type: cell-based, human
Protocol: Also, NIH/3T3, A549, C2C12 and 3T3/L1 cells, each having a population of 4×10^4 cells, were cultured on 35 mm cell culture dishes (BD Falcon™ Cell Culture Dish; BD Bioscience, CA, USA). Two days later, the cell culture medium was replaced with a glucose-depleted medium (DMEM, glucose free, GIBCO) supplemented with 0 mM, 11 mM or 55 mM D-glucose and 10 μM GB2-Cy3. After incubation at 37° C. for 30 min, the cells on the cover slips in the 35-mm cell culture dishes were washed twice with cold PBS and the cover slips were mounted on the caster of a fluorescence microscope (Olympus IX71). During observation under the fluorescence microscope, the cells were maintained at 37° C. in the chamber. Fluorescence images of 35-50 cells were taken by CCD camera (Axiocam MRm, Germany) and each cell was measured for fluorescence intensity using the image data analysis program Image-Pro® Plus (MediaCybernetics, USA). As ROIs (regions of interest), areas which encompassed cells within phase-contrast images were drawn using Image-Pro® Plus. Image-Pro® Plus analyzed CCD camera images to produce the digitized mean of fluorescence intensity within the ROIs that the present inventors had established. The background intensity was subtracted from the detected fluorescence intensity to give the fluorescence intensity value that a cell contained. In this manner, the fluorescence intensity was digitized for performing various experiments.
NIH/3T3 and A549 cells were cultured on microscope cover glasses in 35 mm cell culture dishes and subjected to fluorescence imaging analysis according to the protocol.

C2C12 muscle cells [6] = assay: Glucose competition and insulin response monitored by GB2-Cy3, flow cytometry; type: cell-based, mouse; details: D-glucose competition and insulin treatment
Protocol: as §3
The resulting cells were incubated with 5 μM GB2-Cy3 for 15 min in the absence/presence of 11 mM D-glucose. They were washed with cold PBS, collected and analyzed using FACSCalibur™. After detection of GB2-Cy3 by FL2 channels, mean fluorescent intensity values were calculated.

A549 cells [7] = assay: Probe uptake by A549 cells, inverted fluorescent microscope (α/β anomers, alanine, 2-NBDG comparison); type: cell-based, human
Protocol: as §2
To confirm the above hypothesis, real-time uptake of Cy3-Glc-α was measured, and the results were compared to those of Cy3-Glc-β by live imaging of A549 cells by using inverted fluorescent microscope. […] This led the present inventors to the conclusion that the stereochemistry at the C-1 anomeric position definitely influences the efficiency of mimicking glucose, and this might be due to the binding orientation of D-glucose in GLUTs [P. W. Hruz, M. M. Mueckler, Mole. Memb. Biol. 2001, 18, 183-193].
The cellular uptake of 2-NBDG was not detected under identical experimental conditions used for Cy3-Glc-α. […] To achieve the fluorescence intensity with 2-NBDG to 80% that of Cy3-Glc-α, a 10 fold increase in 2-NBDG concentration and a 20 fold increase in the lens exposure time in D-glucose-depleted medium were needed.
In addition, the cellular uptake of 2-NBDG in normal media (containing 10 mM D-glucose) was extremely low (>60% uptake reduction in normal media) and was hardly detected using fluorescent based imaging methods [R. G. O'Neil, L. Wu, N. Mullani, Mol. Imaging Biol. 2005, 7, 388-392]. 2-NBDG was detectable only in glucose-depleted media, and this means a critical limitation of bioapplication of 2-NBDG in the biologically significant environments. In comparison with 2-NBDG, the reduction of Cy3-Glc-α uptake in glucose-containing media was only 5% compared to that in glucose-depleted media (FIG. 18). Therefore, it was confirmed that Cy3-Glc-α was capable of being applied to a bioassay system regardless of glucose starvation.

[8] = normal media containing 10 mM D-glucose; cited from earlier work

## insulin: Insulin purchased from SIGMA; stimulates GLUT4 translocation and glucose uptake
3T3/L1 adipocytes
  effect on cellular uptake of glucose monitored by GB2-Cy3: enhanced cellular uptake of glucose
C2C12 muscle cells [1]
  effect on cellular uptake of glucose monitored by GB2-Cy3: enhanced cellular uptake of glucose

## CC(=O)O[C@H]1C(=O)[C@@]2(C)[C@H]([C@H](OC(=O)c3ccccc3)[C@]3(O)C[C@H](OC(=O)[C@H](O)[C@@H](NC(=O)c4ccccc4)c4ccccc4)C(C)=C1C3(C)C)[C@]1(OC(C)=O)CO[C@@H]1C[C@@H]2O [Taxol]
A549 cells [2]; agent 49 nM, 6 h
  uptake of Cy3-Glc-α by A549 cells: 96.5%
A549 cells [2]; agent 49 nM, 12 h
  uptake of Cy3-Glc-α by A549 cells: 86.9%
A549 cells [2]; agent 490 nM, 6 h
  uptake of Cy3-Glc-α by A549 cells: 88.4%
A549 cells [2]; agent 490 nM, 12 h
  uptake of Cy3-Glc-α by A549 cells: 61.8%
A549 cells [2]; agent 9.8 μM, 6 h
  uptake of Cy3-Glc-α by A549 cells: 54.8%
A549 cells [2]; agent 9.8 μM, 12 h
  uptake of Cy3-Glc-α by A549 cells: 50.2%
A549 cells [2]; taxol 9.8 μM, 3, 6, 12, 24 h
  cellular uptake of Cy3-Glc-α versus incubation time with agent: reduced as the incubation time increased

## COc1ccc(C[C@@H](O)c2cc(OC)c(OC)c(OC)c2)cc1O [Combretastatin]
A549 cells [2]; agent 2 μM, 6 h
  uptake of Cy3-Glc-α by A549 cells: 57.4%
A549 cells [2]; agent 2 μM, 12 h
  uptake of Cy3-Glc-α by A549 cells: 45.0%

## C[N+]1=C(/C=C/C=C2/N(CCCCC(=O)N3CCN(CCOC4OC(CO)C(O)C(O)C4O)CC3)c3ccccc3C2(C)C)C(C)(C)c2ccccc21 [GB2-Cy3, [2-(N-Cy3-piperazinoethyl)]-α-D-glucose]
NIH/3T3 cells [3]
  cellular uptake versus D-glucose concentration: reduced in a D-glucose dose-dependent manner
3T3/L1 pre-adipocytes
  fluorescent intensity (FL2) as differentiation progressed: increase in fluorescence intensity with the advance of differentiation; also recorded: the fluorescent intensity detected by FL2 channel was increased
NIH/3T3 cells [4]; probe 5 μM
  reduction in cellular uptake due to 11 mM D-glucose: about 60%
A549 cells [5]; GB2-Cy3 10 μM
  cellular uptake in A549 cells compared with NIH/3T3 cells: observed to increase in A549 lung carcinoma cells
A549 cells [5]; GB2-Cy3 10 μM, 0, 11 or 55 mM D-glucose
  cellular uptake versus D-glucose concentration: reduced in a D-glucose dose-dependent manner
A549 cells [5]; probe 12.5 μM
  cellular uptake versus D-glucose concentration: decreased in the cellular uptake of the glucose analogues in D-glucose dose-dependent manners
  change in the fluorescent intensity of ROIs when D-glucose changed from 10 mM to 55 mM: approximately 27%
C2C12 muscle cells [6]
  uptake route of GB2-Cy3: GLUT-specific uptake

## O=[N+]([O-])c1ccc(NC2C(O)OC(CO)C(O)C2O)c2nonc12 [2-NBDG, 2-[N-(7-nitrobenz-2-oxa-1,3-diazol-4-yl)amino]-2-deoxy-D-glucose]
A549 cells [7]; 12.5 μM, 500 ms lens exposure
  detection of cellular uptake under conditions identical to Cy3-Glc-α: not detected
A549 cells [7]; 125 μM, 500 ms CCD lens exposure
  fluorescence detection at 125 μM: little detected; also recorded: the fluorescence was not detected
A549 cells [7]; 10 fold 2-NBDG concentration, 20 fold lens exposure time, D-glucose-depleted medium
  fluorescence intensity of 2-NBDG relative to that of Cy3-Glc-α: 80%
NIH/3T3 cells [4]; probe 5 μM, 11 mM D-glucose
  competition with D-glucose for cellular uptake: did not compete with D-glucose for cellular uptake
NIH/3T3 cells [4]; probe 50 μM
  reduction in cellular uptake due to 11 mM D-glucose: 30%
[8]
  uptake reduction in normal media: > 60%
